The values below come from patent US20080234183A1, “Cell Penetrating Peptides” (priority 2002, published 2008).

One data set concerns human umbilical artery. As to the kind of experiment: Blood vessel contraction measurement. On the procedure: (§1) Dissected porcine hearts (260-390 g) were transported from local slaughterhouse to the laboratory in ice-cold Krebs-Henseleit solution (119 mM NaCl, 23.8 mM NaHCO3, 3 mM KCl, 1.14 mM NaH2PO4, 1.63 mM CaCl2, and 16.5 mM glucose). Left anterior descending coronary artery and great cardiac vein were isolated. Part of each blood vessel was used immediately after Isolation for contraction assays while part of it was kept frozen in liquid nitrogen for the membrane preparation. In some experiments blood vessels in which endothelium was mechanically removed were used. The same procedure was used also for the preparation of human umbilical blood vessels; umbilical cords were obtained from Obstetric Clinic of Ljubljana Clinical Center, Slovenia.
(§2) The measurements were performed as already described (20). Rings (5 mm wide) of blood vessels were cut and mounted into 10 ml tissue chamber filled with Krebs-Henseleit solution (37° C.; pH=7.4) which was oxygenated with the mixture of ^95% O2 and 5% CO2. Initial tension of 50 mN was applied and after equilibration 30 mM KCl was added to obtain stable Isometric contraction. The presence of endothelium was verified with substance P. After washing out of KCl and substance P and after the equilibration of the system was restored, test peptide was added into the tissue chamber and blood vessel contraction was recorded.

Data set [1] deals with porcine left anterior descending coronary artery. As to the kind of experiment: Blood vessel contraction measurement. On the procedure: as §1, §2
The subject of the next data set is great cardiac vein. Put plainly: Blood vessel contraction measurement. Further details: species or system porcine. As to the method: as §1, §2
Data set [2] deals with G-proteins from blood vessel membranes. Put plainly: Rate of GTPγS binding to blood vessel membranes. It counts as biochemical. Particulars: membranes from porcine left anterior descending coronary artery. On the procedure:
Frozen pieces of blood vessels were mechanically pulverized. Subsequently membranes were obtained according to the protocol of McKenzie (McKenzie, F. R. Signal Transduction (Milliqan, E., Ed.), Oxford University Press, Oxford, N.Y., Tokyo. (1992)) with minor modifications. Until used, they were kept frozen in the concentration of 1-2 mg protein/ml as determined by the method of Lowry (Lowry, O. H., Rosenbrough, N.Y., Farr, A. L. & Randall, R. J. J. Biol. Chem. 193, 265-275 (1951)). The same procedure (with the exception of pulverization of tissue) was used also for the preparation of membranes from Sf9 cells which overexpressed the G-proteins of different types; protein concentrations of these membrane preparations were between 0.2 and 0.4 mg/ml.
The binding to G-proteins from blood vessel membranes was followed as described by McKenzie (McKenzie, F. R. Signal Transduction (Milligan, E., Ed.), Oxford University Press, Oxford, N.Y., Tokyo. (1992)). Briefly, the membranes (final protein concentration in the assay mixture was 0.05 mg/ml) were incubated for 3 min in the absence and presence of peptides in different concentrations with 0.5 nM [^35S]GTPγS at 13° C. […] The remaining radioactivity contained in the filters was determined in the LKB 1214 Rackbeta liquid scintillation counter. Blank values were determined by replacing the membrane preparations with buffer.

The next data set deals with T1, Gi (Bos taurus, UniProt P63097).
T1 construct: made in house; host or cells: Sf9 insect cells (baculovirus); membranes used
T1 sequence (P63097 2-354 limits assumed): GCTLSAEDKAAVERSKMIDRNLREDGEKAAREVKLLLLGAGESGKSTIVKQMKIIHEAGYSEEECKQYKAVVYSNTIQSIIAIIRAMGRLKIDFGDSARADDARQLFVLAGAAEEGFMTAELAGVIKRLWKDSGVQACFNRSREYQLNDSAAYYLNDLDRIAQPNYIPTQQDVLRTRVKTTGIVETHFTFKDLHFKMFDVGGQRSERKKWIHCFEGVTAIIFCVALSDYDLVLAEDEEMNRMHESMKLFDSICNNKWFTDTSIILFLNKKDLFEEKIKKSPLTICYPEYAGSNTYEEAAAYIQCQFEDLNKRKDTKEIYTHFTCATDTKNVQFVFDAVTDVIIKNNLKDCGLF
Put plainly: GTPase activity of Sf9 membranes overexpressing G-proteins. Particulars: 100 μM. It counts as biochemical, bovine. The source says: (§3) Baculovirus transfer vectors harboring the genes for Gsα, Giα1 and β1γ2 were kindly provided by Dr. Tatsuya Haga (University of Tokyo, Tokyo, Japan). The cDNA for bovine Gsα (21) in pVL1392, bovine Giα1 (22) In pVL1392 and bovine β1γ2 (23) in pVL1393 were cotransfected with linearized baculovirus DNA (Pharmingen, San Diego, Calif., USA), and the resulted virus stocks were subjected to one round of plaque purification before generation of high-titer virus stocks. In the expression procedure, Sf9 cells at density of 2 million cells/ml in suspension culture were Infected with a ratio 2:1 of a versus βγ. Cells were harvested 48 h post-infection, washed in PBS and stored at −70° C. until membrane preparation.
(§4) Frozen pieces of blood vessels were mechanically pulverized. […] Until used, they were kept frozen in the concentration of 1-2 mg protein/ml as determined by the method of Lowry (Lowry, O. H., Rosenbrough, N.Y., Farr, A. L. & Randall, R. J. J. Biol. Chem. 193, 265-275 (1951)). […]
(§5) Incubation medium was standard TE-buffer, pH 7.5. […] Blank values were determined by the replacement of membrane solution with assay buffer. […] The radioactivity of the yielding radioactive phosphate was determined in Packard 3255 liquid scintillation counter.

A further data set has as its target T2, Gs (Bos taurus, UniProt P04896).
T2 construct: made in house; host or cells: Sf9 insect cells (baculovirus); membranes used
The description is as above. The data set is classed as biochemical, bovine. Particulars: 100 μM.
Source text: as §3, §4, §5

In a further data set the target is T3, Go (Homo sapiens, UniProt P09471).
T3 construct: made in house; host or cells: Sf9 insect cells (baculovirus); membranes used
T3 sequence (P09471 whole entry): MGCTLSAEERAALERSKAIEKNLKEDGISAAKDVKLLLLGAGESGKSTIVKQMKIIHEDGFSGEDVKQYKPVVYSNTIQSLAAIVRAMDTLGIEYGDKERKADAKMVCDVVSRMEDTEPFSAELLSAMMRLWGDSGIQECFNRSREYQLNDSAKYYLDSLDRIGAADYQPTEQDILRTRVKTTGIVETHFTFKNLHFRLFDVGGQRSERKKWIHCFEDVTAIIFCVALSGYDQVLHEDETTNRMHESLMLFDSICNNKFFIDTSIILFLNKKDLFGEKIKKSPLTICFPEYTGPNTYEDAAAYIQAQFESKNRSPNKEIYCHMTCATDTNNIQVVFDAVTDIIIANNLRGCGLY
Described as above. The data set is classed as biochemical. To be noted: 100 μM.

For the next data set, the target named is T4, G11 (Homo sapiens, UniProt P29992).
T4 construct: made in house; host or cells: Sf9 insect cells (baculovirus); membranes used
T4 sequence (P29992 1-359): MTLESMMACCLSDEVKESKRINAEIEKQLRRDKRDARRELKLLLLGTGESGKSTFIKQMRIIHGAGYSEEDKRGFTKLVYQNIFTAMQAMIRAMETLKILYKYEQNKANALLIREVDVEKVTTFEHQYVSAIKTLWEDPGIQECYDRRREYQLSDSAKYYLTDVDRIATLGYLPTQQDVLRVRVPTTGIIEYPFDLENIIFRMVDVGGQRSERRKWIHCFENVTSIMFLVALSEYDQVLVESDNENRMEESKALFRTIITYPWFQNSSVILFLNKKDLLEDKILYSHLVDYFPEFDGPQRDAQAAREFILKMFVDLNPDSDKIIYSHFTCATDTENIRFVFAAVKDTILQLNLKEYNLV
The description is as above. The data set is classed as biochemical. To be noted: 100 μM.

Data set [3] has as its system N2A mouse neuroblastoma cells. Put plainly: Cellular internalisation assay of fluorescein-labelled APP and PS peptides. It counts as cell-based. To be noted: 10 μM, 37°. As to the method:
Mouse neuroblastoma cells, N2A, were cultivated in Dulbecco's minimal essential medium with Glutamax-I, supplemented with 10% (v/v) fetal bovine serum, penicillin (100 U/ml) and streptomycin (100 μg/ml).
The cells used for Internalisation were seeded out on round glass coverslips in 24well plates. One day post seeding, the cells were semi confluent, and the medium was changed to serum-free medium. The fluorescein-labelled peptides were added, with a final concentration of 10 μM. After 60 min of incubation at 37°, the cells were washed 3 times with 1 ml of Hepes-Krebbs-Ringer-(HKR) buffer and fixed with 3% paraformaldehyde solution in phosphate-buffered saline solution (PBS) for 10 minutes. The cells were then washed 3 times with 1 ml of HKR-buffer, and the coverslips were mounted and sealed for microscopy studies.
The cell type used for the internalisation assays with the fluorescein'tagged peptides was N2A mouse neuroblastoma cells. This cell-line is commonly used in association with Alzheimer's disease studies, and serves as a good model cell-line for these internalisation assays where peptides derived from proteins involved in Alzheimer's disease were examined. These Internalisation assays were performed at 37° C., therefore the internalisation by endocytosis cannot be excluded.

The test system of data set [4] is N2A mouse neuroblastoma cells. Described as above. The data set is classed as cell-based.
The next data set concerns Porcine coronary artery. As to the kind of experiment: Effect of M630 on porcine coronary artery. As to the method: CGRP receptor loop iC4, sequence 391-405 ([…]) was synthesised and tested at blood vessels as described for the ATLAR loop previously.
Porcine coronary artery was contracted by using KCl. After relaxation of the artery by washing, 50 μM M630 was applied. Contraction started after approximately 10 min and reached maximum in 15 to 20 min after application. […] The effect was reproducible and always very clearly observed. The lag-period of 10 min could be the time needed for the penetration of M630 into the cells.

The test system of the next data set is N2a cells. Put plainly: Cellular internalisation of M630 conjugated to fluorescein. To be noted: 5 μM, 1 h, 37° C. It counts as cell-based. On the procedure: FIG. 42. Cellular internalisation of M630 conjugated to fluorescein in N2a cells, visualised by confocal microscope. The cells were incubated for 1 h at 37° C. with a final peptide concentration of 5 μM.

Another data set concerns Bowes and Caco-2. As to the kind of experiment: PenMMP14 uptake in cells expressing MMP14. It counts as cell-based, human. The source says:
FIG. 24. Another example of an Inactivated selCPP. PenMMP14 uptake in Bowes (A) and B)) and Caco-2 (C) and D)). The left column is uptake of fluorescein labelled peptide (A) and C)) and the […] with coumarine label (B) and D)).

The test system of the next data set is T5, YTA-2ps.
T5 sequence: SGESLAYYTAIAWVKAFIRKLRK

T2 sequence (P04896 whole entry): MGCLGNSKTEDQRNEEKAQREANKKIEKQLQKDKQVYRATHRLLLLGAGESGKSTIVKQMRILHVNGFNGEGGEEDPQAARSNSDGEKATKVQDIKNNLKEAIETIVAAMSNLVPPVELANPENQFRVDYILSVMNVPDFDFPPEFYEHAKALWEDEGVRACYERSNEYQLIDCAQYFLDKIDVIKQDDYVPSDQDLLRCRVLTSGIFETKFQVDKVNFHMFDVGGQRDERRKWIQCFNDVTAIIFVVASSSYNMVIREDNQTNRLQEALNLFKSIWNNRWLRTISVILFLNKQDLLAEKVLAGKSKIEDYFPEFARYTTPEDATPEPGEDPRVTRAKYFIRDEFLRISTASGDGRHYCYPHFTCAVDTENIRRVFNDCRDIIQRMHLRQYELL

In the case of FLGKKFKKYFLQLLK [Peptide M511], the “blood vessel contraction compared with porcine artery” value in the data set with human umbilical artery and in the data set with great cardiac vein was “Virtually Identical effect” in each case. Moreover, the “termination of contraction by washing” value in data set [1] was “could not be terminated by washing”. Further, the blood vessel contraction entry in [1] (16 μM) is “intense and long-lasting contraction”. The “strength of contraction as % of maximal effect of potassium ion” value in data set [1] (16 μM, comparable to 30 mM K+) was “approximately 50%”. Further, in data set [1] (100 mM M511 (so in the source)), the “contraction force higher than that induced by 30 mM KCl” value is reported as “about 40%”. Also, the “rate of binding of GTPγS” value in data set [2] is on record as “dose-dependently increased”. For the same substance, the GTPase activity result in the data set with Gi is recorded as “small but significant activation”; with Gs, “seems not to be affected”; with Go it was “small but significant activation”; with G11, “moderate inhibition”.
Regarding KKKQYTSIHHGVVEVD [APP (725-740)], the cellular localisation result in data set [3] is “mostly to the cytosol”. Moreover, the cellular internalisation entry in data set [3] (60 min) was “increased fluorescence compared to the background”. The “internalisation at 4° C.” value in data set [4] is listed as “not internalised”.
On to VQAILRRNWNQYKIQ [Peptide M630], for which the “effect on the contracted arteries” value in the data set with Porcine coronary artery is recorded as “no effect”. Moreover, in the data set on Porcine coronary artery (50 μM), the “reversal of contraction by washing” value was “Washing did not reverse the contraction” and the “time to start of contraction” value is given as “approximately 10 min”. For the same substance, the cell membrane penetration result in the data set with N2a cells is reported as “penetrates cell membranes by a non-endocytotic mechanism”.
Consider KGKFQLYLKLKFKFL [Scrambled M511], for which, in data set [1] (16 μM), the blood vessel contraction entry is “did not cause any contraction”. Further, the “rate of binding of GTPγS” value in [2] was “not active”.
Take “coum-DEEQERSEN-IRQIKIWFQNRRMKWK*K-amide [SelCPP2]”: the cellular uptake result with Bowes and Caco-2 is “taken up in cells expressing MMP14”.
Turning to matrix metallo proteinase-2 (MMP-2), the “cleavage of the peptide by the protease, checked by mass spectrometry” value in the data set with YTA-2ps was “The correct cleavage of YTA-2 by MMP2 has also be confirmed by mass spectrometry (data not shown)”.
